Experimental data as given in paper PMC3769509 (Nuclear medicine and biology, 2013).
Several values for one entry are separate records, joined by “and”; a condition that tells them apart may be missing. Identical values can stand only once.

Key:
[1] = PET studies: plasma analysis of unchanged radiotracer; settings: baboon, iv; for fraction of radioactivity in plasma as unmetabolized compound: 30 min after administration
[2] = epilepsy patients, after intravenous infusions; cited from earlier work
[3] = PET studies: brain pharmacokinetics; settings: baboon, iv
[4] = PET studies: biodistribution in peripheral organs; settings: baboon, iv
[5] = Ex vivo rat brain analysis after [11C]BA administration; type: in vivo; settings: 5 min and 30 min after administration, data not shown
Free fraction in plasma = type: in vitro ADME; settings: baboon plasma
Lipophilicity at pH 7.4 = type: physicochemical
[6] = parent and/or labeled metabolites

SMILES | fraction of radioactivity in plasma as unmetabolized compound [1] [%] | brain uptake of carbon-11 [3] | high uptake in vertebrae [4] | uptake in heart [4, 6] | % unbound in plasma (Free fraction in plasma) | Log D at pH 7.4 (Lipophilicity at pH 7.4) | also measured
CCCC(CCC)C(=O)O [VPA, 2-propylpentanoic acid] | 98 | < 0.006 %ID/cc and 0.004 %ID/cc | not observed | remarkably high | – | – | free VPA in plasma [2]: 9–15%
CCCC(=O)O [BA, n-butyric acid] | – | < 0.006 %ID/cc | – | – | – | – | –
CCC[11C](=O)O [[^11C]BA, [^11C]Butyric Acid] | – | ~ 0.006 %ID/cc | high uptake | very low | 82±0.4 (n=2) % | – | intact [11C]BA fraction in brain [5]: very low; uptake in pancreas [4, 6]: relatively high and high; uptake in spleen [4, 6]: relatively high and high
CCCC(CCC)[11C](=O)O [[^11C]VPA, [^11C]Valproic Acid] | – | – | – | exceptionally high | 26±0.3 (n=2) % | 0.26±0.03 (n=5) | intact fraction in plasma ([1]; over 90 min): > 90%
O=C(O)CCCc1ccccc1 [PBA, 4-phenylbutyric acid] | 85 | < 0.006 %ID/cc | not observed | – | – | – | –
O=[11C](O)CCCc1ccccc1 [[^11C]PBA, [^11C]-4-Phenylbutyric Acid] | – | ~ 0.006 %ID/cc | – | moderate | 1.5±0.7 (n=6) % | −0.20±0.03 (n=6) | uptake in liver [4, 6]: high
